We go through seven molecules from PubChem BioAssay (NCI).

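96-well plates; 48 h exposure; 5 concentrations. Endpoints by linear interpolation between flanking doses. Not reached: highest tested concentration assigned. TGI is the concentration that stops growth completely.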

Among the test systems are SN12C renal; SF-268 CNS; MALME-3M melanoma; MDA-MB-435; EKVX NSCLC; LOX IMVI melanoma; RXF 393 renal; NCI-H226 lung; OVCAR-4 ovarian; OVCAR-8 ovarian; OVCAR-3 ovarian; NCI-H460 lung; HCT-116 colon; NCI-H23 lung; HL-60(TB) leukemia; HT29 colon; KM12 colon; SK-MEL-28 melanoma; SW-620 colon; M14 melanoma.
Common to all, as to experiment: DTP human tumour cell line panel, 48 h

As usually defined, the TGI is the concentration giving total growth inhibition. High values mean less potent growth arrest, low ones more potent growth arrest. In the case of `O=C1/C(=c2\s/c(=C\c3ccccc3)c(=O)n2-c2ccccc2)SC(=S)N1c1ccccc1`, the TGI in the test with SN12C renal, in the test on SF-268 CNS, in the test on MALME-3M melanoma, in the test with MDA-MB-435, with EKVX NSCLC and in the test with LOX IMVI melanoma was greater than 100 µM throughout. Besides, the TGI in the test with RXF 393 renal was greater than 100 µM; in the test on NCI-H226 lung, 89.4 µM; with OVCAR-4 ovarian it was greater than 100 µM; with OVCAR-8 ovarian, greater than 100 µM; in the test with OVCAR-3 ovarian, 88.8 µM; in the test with NCI-H460 lung it was greater than 100 µM. For the same molecule, the TGI in the test on HCT-116 colon, in the test on NCI-H23 lung, in the test with HL-60(TB) leukemia, with HT29 colon, with KM12 colon and in the test on SK-MEL-28 melanoma was greater than 100 µM in each case. In addition, the TGI in the test on SW-620 colon and with M14 melanoma was greater than 100 µM throughout.
For the molecule `Cc1cc2c(cc1Cl)SC(NNC(=O)c1ccco1)=NS2(=O)=O`, the TGI with SN12C renal, with SF-268 CNS, in the test on MALME-3M melanoma, in the test with MDA-MB-435, with EKVX NSCLC and in the test with LOX IMVI melanoma was greater than 10 µM throughout. Also, the TGI with RXF 393 renal, with NCI-H226 lung, in the test with OVCAR-4 ovarian, in the test with OVCAR-8 ovarian, with OVCAR-3 ovarian and in the test on NCI-H460 lung was greater than 10 µM throughout. Also, the TGI in the test on HCT-116 colon, with NCI-H23 lung, with HL-60(TB) leukemia, in the test with HT29 colon, in the test with KM12 colon and with SK-MEL-28 melanoma was greater than 10 µM in each case. For the same molecule, the TGI with SW-620 colon and in the test with M14 melanoma was greater than 10 µM in each case.
For `Cc1ccc([N+](=O)[O-])cc1S(=O)(=O)Nc1ccc(C2=NOC(c3ccco3)C2)cc1` (stereo not given), the TGI stood at 52.6 µM in the test on SN12C renal; 97.1 µM in the test with SF-268 CNS; 53.5 µM in the test with MALME-3M melanoma; 11.8 µM with MDA-MB-435; 61.9 µM in the test with EKVX NSCLC; 40.2 µM in the test with LOX IMVI melanoma. The TGI in the test with RXF 393 renal is 23.3 µM; in the test with NCI-H226 lung, 39.6 µM; in the test on OVCAR-4 ovarian it was 32.7 µM; in the test with OVCAR-8 ovarian, greater than 100 µM; in the test with OVCAR-3 ovarian, 30.7 µM; with NCI-H460 lung it was 37.2 µM. Also, the TGI in the test on HCT-116 colon stood at 31.9 µM; in the test with NCI-H23 lung, 37.4 µM; in the test with HL-60(TB) leukemia it was 54.7 µM; in the test with HT29 colon, 56 µM; with KM12 colon, 24.7 µM; in the test with SK-MEL-28 melanoma it was 43.5 µM. For the same molecule, the values for the TGI with SW-620 colon and in the test on M14 melanoma were 58.9 µM and 32.8 µM, respectively.
On to `O=C1C(N2CCN(c3ccccn3)CC2)=C(Cl)C(=O)c2ncccc21`, for which the TGI in the test with SN12C renal was 3.22 µM; with SF-268 CNS it was greater than 10 µM; in the test on MALME-3M melanoma it was 2.75 µM; in the test with MDA-MB-435, greater than 5.27 µM; with EKVX NSCLC it was greater than 10 µM; in the test on LOX IMVI melanoma it was 5.35 µM. Besides, the TGI with RXF 393 renal was 3.56 µM; in the test on NCI-H226 lung, greater than 10 µM; with OVCAR-4 ovarian, 1.95 µM; in the test with OVCAR-8 ovarian, greater than 6.1 µM; in the test with OVCAR-3 ovarian, 3.95 µM; in the test on NCI-H460 lung, greater than 10 µM. Besides, the TGI was 3.13 µM in the test on HCT-116 colon; 3.68 µM with NCI-H23 lung; 0.906 µM with HL-60(TB) leukemia; greater than 6.16 µM with HT29 colon; greater than 5.95 µM in the test with KM12 colon; greater than 7.95 µM in the test with SK-MEL-28 melanoma. The TGI in the test on SW-620 colon was 2.78 µM; in the test on M14 melanoma, 3.82 µM.
As for `Fc1ccc(C(OCCN2CCN(CCCCl)CC2)c2ccc(F)cc2)cc1`, the TGI in the test with SN12C renal was 69.4 µM; in the test on SF-268 CNS, 77.5 µM; in the test on MALME-3M melanoma it was 31.8 µM; in the test on MDA-MB-435 it was 32.1 µM; with EKVX NSCLC it was greater than 100 µM; in the test on LOX IMVI melanoma, 32.9 µM. The TGI in the test with RXF 393 renal was 44.4 µM; in the test on NCI-H226 lung it was 40.9 µM; in the test on OVCAR-4 ovarian, 81.5 µM; with OVCAR-8 ovarian, 91 µM; in the test on OVCAR-3 ovarian it was 74.9 µM; in the test on NCI-H460 lung it was 55.5 µM. In addition, the TGI in the test with HCT-116 colon is 46.6 µM; with NCI-H23 lung, 50.5 µM; in the test with HL-60(TB) leukemia, 25.6 µM; in the test with HT29 colon, 40 µM; with KM12 colon, 38 µM; with SK-MEL-28 melanoma, greater than 100 µM. Also, the TGI was greater than 100 µM in the test on SW-620 colon and 39.5 µM in the test with M14 melanoma.
Turning to `COC(=O)C(Cc1ccccc1)NP(=O)(O)OCC1OC(n2cc(Br)c(=O)[nH]c2=O)CC1O` (stereo not given), the TGI with SN12C renal, in the test with SF-268 CNS, in the test with MALME-3M melanoma, in the test on MDA-MB-435, in the test on EKVX NSCLC and in the test on LOX IMVI melanoma was greater than 100 µM each time. For the same molecule, the TGI in the test with RXF 393 renal, in the test with NCI-H226 lung, in the test on OVCAR-4 ovarian, in the test on OVCAR-8 ovarian, in the test with OVCAR-3 ovarian and in the test with NCI-H460 lung was greater than 100 µM each time. Moreover, the TGI in the test with HCT-116 colon, with NCI-H23 lung, in the test on HL-60(TB) leukemia, in the test on HT29 colon, with KM12 colon and in the test with SK-MEL-28 melanoma was greater than 100 µM throughout. Further, the TGI in the test on SW-620 colon and in the test with M14 melanoma was greater than 100 µM each time.
With `CC(=O)OCCCC(NC(=O)OC(C)(C)C)C(=O)NC(CCCOC(C)=O)C(=O)NC(Cc1ccc([N+](=O)[O-])cc1)C(=O)NCC(=O)OCc1ccccc1` (stereo not given), the TGI in the test with SN12C renal was determined as 31.6 µM; in the test on SF-268 CNS it was 35.6 µM; in the test with MALME-3M melanoma, 34.4 µM; with MDA-MB-435 it was 31.1 µM; in the test with EKVX NSCLC, 33.3 µM; in the test on LOX IMVI melanoma it was 25.9 µM. Further, the TGI in the test with RXF 393 renal was 31.1 µM; with NCI-H226 lung, 31.3 µM; in the test with OVCAR-4 ovarian, 28.8 µM; in the test on OVCAR-8 ovarian it was 31 µM; in the test on OVCAR-3 ovarian, 30.1 µM; in the test with NCI-H460 lung, 29.5 µM. Also, the TGI in the test with HCT-116 colon turned out to be 32.4 µM; in the test with NCI-H23 lung, 27.3 µM; in the test on HL-60(TB) leukemia it was 19.5 µM; in the test on HT29 colon, 31.9 µM; in the test on KM12 colon it was 29 µM; in the test on SK-MEL-28 melanoma, 31.9 µM. The TGI with SW-620 colon was 31.1 µM; in the test on M14 melanoma, 25.6 µM.
